The text below walks through data of patent US9579401B2, “Staining composition” (Medical Technology Transfer Holding B.V., priority 2010, dated 2017).

The nature of this data set: Stability of trypan blue and brilliant blue G in polymer solutions, 70° C. for 7 days, absorbance spectra. As to conditions: 0.025% (w/v).

For `CCOc1ccc(Nc2ccc(/C(=C3C=C/C(=[N+](/CC)Cc4cccc(S(=O)(=O)[O-])c4)C=C/3C)c3ccc(N(CC)Cc4cccc(S(=O)(=O)[O-])c4)cc3C)cc2)cc1.[Na+]` [brilliant blue G], the “stability of brilliant blue G (difference absorbance spectra)” value reads like this: (4% (w/v) PEG Mw≈3350) “excellent solvent”; (PVA Mw≈13,000-23,000) “much less stable”.
